These results are taken from PMC7160673, “A Degenerate Peptide Library Approach to Reveal Sequence Determinants of Methyllysine-Driven Protein Interactions” (Frontiers in Cell and Developmental Biology, 2020).

Holding throughout (format): binding
In experiment [1] the test system is Millipore #07-449, anti-H3K27me3. Kind of experiment: Histone peptide microarray, Millipore 07-449. As to conditions: Millipore 07-449 (anti-H3K27me3) hits, average signal per peptide. The method, then: (§1) Peptide microarrays were fabricated using an Aushon 2470 microarrayer and used as described ([Cornett et al., 2017]) with the following modifications. Protein and antibody hybridization steps were performed in buffer containing 25 mM HEPES pH 7.5, 100 mM NaCl, 0.5% BSA (w/v), and 0.1% NP-40. Slides were washed 3 × 5 min in PBS supplemented with 0.1% Tween-20 between each hybridization step. Antibodies used were primary anti-GST (Sigma #7781, 1:2,000 dilution) and an AlexaFluor 647-labeled secondary antibody (Life Technologies A-21245, 1:5,000 dilution). […] Full lists of peptides queried by array analysis are in Supplementary Table S2.

The subject of experiment [2] is Abcam #ab8895, anti-H3K4me1. Kind of experiment: Histone peptide microarray, Abcam ab8895. As to conditions: Abcam ab8895 (anti-H3K4me1) hits, average signal per peptide. The method, then:
as §1

Experiment [3] has as its system Active Motif #39161, anti-H3K9me3. The experiment can be described thus: Histone peptide microarray, Active Motif 39161. As to conditions: Active Motif 39161 (anti-H3K9me3) hits. On the procedure:
as §1
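Also: normalized to the highest peptide average per subarray.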

For the substance “AGGK(Ac)AGK(Ac)DSGK(Ac)AKTKAVSR-Peg-Biot [H2A.Z.1K4acK7acK11ac]”, the “Avg Signal” value was determined as 0.00926 in experiment [1], 0.0004754 in experiment [2] and 0.0007875 in experiment [3].
In the case of “AGGKAGKDSGKAKTKAVSR-Peg-Biot [H2A.Z.1 unmod (1-19)]”, the “Avg Signal” value in experiment [1] came out at 0.001328.
In the case of “AGGRAGRDSGRAKTKAVSR-Peg-Biot [H2A.Z.1K4RK7RK11R]”, the entries for the “Avg Signal” value in experiment [1], in experiment [2] and in experiment [3] were 0.008119, 0.03173 and 0.02573, respectively.
For the substance “ARTKQTAR(Me2s)KSTGGKAPRKQL-Peg-Biot [Peptide H3.1R8me2s]”, the results for the “Avg Signal” value in experiment [2] and in experiment [3] were 0.05819 and 0.0002677, respectively.
With “ARTKQTARKSTGG-NleAPRKQL-Peg-Biot [Peptide H3.1K14-Nle]”, the “Avg Signal” value is on record as 0.0002842 in experiment [1] and 0.09623 in experiment [2].
As for “ARTKQTARKSTGGK(Me2)APRKQL-Peg-Biot [Peptide H3.1K14me2]”, the “Avg Signal” value was determined as 0.003481 in experiment [1], 0.15 in experiment [2] and 0.004075 in experiment [3].
In the case of “ARTKQTARKSTGGK(Me3)APRKQL-Peg-Biot [Peptide H3.1K14me3]”, the “Avg Signal” value is reported as 0.01888 in experiment [1] and 0.148 in experiment [2].
Consider “ARTKQTARKSpTGGKAPRKQL-Peg-Biot [Peptide H3.1T11p]”, for which the “Avg Signal” value amounted to 0.0009523 in experiment [1], 0.1657 in experiment [2] and 0.0006879 in experiment [3].
In the same order, the values of “ATKAACitKSAPATGGVKKPHRYRPGGG-K(Biotin)-OH [H3.1K27acK36me3]” are 0.01344, 0.0002929 and 0.01207.
In the same order, the values of “ATKAARK(Ac)SAPATGGVK(Me2)KPHRYRPG-GK(Biotin)-OH [H3.1K27acK36me2]” are 0.003089, 0.002974 and 0.009849.
In the same order, the values of “ATKAARK(Ac)SAPATGGVK(Me)KPHRYRPG-GK(Biotin)-OH [H3.1K27acK36me1]” are 0.006337, 0.01424 and 0.01097.
Take “Ac-AGGK(Ac)AGK(Ac)DSGK(Ac)AKTKAVSR-Peg-Biot [H2A.Z.1K4acK7acK11acN-ac]”: the results for the “Avg Signal” value in experiment [1], in experiment [2] and in experiment [3] were 0.0008552, 4.222e-5 and 0.000221, respectively.
As for “Ac-AGGKAGKDSGKAKTKAVSR-Peg-Biot [H2A.Z.1(1-19)N-ac]”, the results for the “Avg Signal” value in experiment [1] and in experiment [2] were 0.007006 and 0.002647, respectively.
As to “Ac-APRK(Ac)QLATK(Ac)AARK(Ac)SAPSTGG-Peg-Biot [H3.3K18acK23acK27ac]”, the “Avg Signal” value in experiment [1] was found to be 0.005039; in experiment [3] it was 0.0217.
In the same order, the values of “Ac-APRKQLATKAARK(Ac)SAPATGG-Peg-Biot [Peptide H3.1K27ac]” are 0.003716 and 0.002581.
In the case of “Ac-APRKQLATKAARK(Ac)SAPSTGG-Peg-Biot [Peptide H3.3K27ac]”, the results for the “Avg Signal” value in experiment [2] and in experiment [3] were 0.011 and 0.002855, respectively.
With “Ac-APRKQLATKAARKpSAPSTGG-Peg-K(Biot)-NH2 [Peptide H3.3S28p]”, the “Avg Signal” value in experiment [1] is on record as 0.00807; in experiment [2] it was 0.002135; in experiment [3], 0.006366.
“Ac-APRKQLATKAARR(Me2a)K(Me)SAPSTGG-Peg-Biot [H3.3R26me2aK27me1]”: the “Avg Signal” value in experiment [1] turned out to be 0.002329; in experiment [2], 0.000609.
Take “Ac-ARAKAKTRSSRAGLQF-Peg-Biotin [H2A(10-25)]”: the “Avg Signal” value in experiment [1] turned out to be 0.005421.
For the substance “Ac-RRYQK(Ac)STELL-Peg-Biot [Peptide H3.1K56ac]”, the “Avg Signal” value in experiment [1] was found to be 0.004595.
Regarding “Ac-RRYQK(Me3)STELL-Peg-Biot [Peptide H3.1K56me3]”, the “Avg Signal” value in experiment [1] was determined as 0.0004417; in experiment [3] it was 0.01852.
For the substance “Ac-SGR(Me2a)GK(Ac)GGKGLGKGGAKRHRKVLR-K(Biot)-NH2 [Peptide H4R3me2aK5ac]”, the entries for the “Avg Signal” value in experiment [2] and in experiment [3] were 0.006503 and 0.0007875, respectively.
Consider “Ac-SGRGK(Ac)GGK(Ac)GLGK(Me)GGAK(Ac)RHRKVLR-Peg-Biot [H4K5acK8acK12me1K16ac]”, for which the “Avg Signal” value in experiment [2] was 0.02773; in experiment [3], 0.0008155.
As for “Ac-SGRGK(Ac)GGK(Ac)GLGKGGAK(Ac)RHRKVLR-Peg-Biot [H4K5acK8acK16ac]”, the “Avg Signal” value in experiment [3] was 0.009927.
On to “Ac-SGRGK(Ac)GGK(Ac)GLGKGGAKRHRKVLR-Peg-Biot [Peptide H4K5acK8ac]”, for which the “Avg Signal” value in experiment [1] worked out at 0.02195; in experiment [2], 0.0004782.
Consider “Ac-SGRGK(Ac)GGKGLGK(Ac)GGAK(Ac)RHRKVLR-Peg-Biot [H4K5acK12acK16ac]”, for which the “Avg Signal” value in experiment [1] is recorded as 0.0005303.
Turning to “Ac-SGRGK(Ac)GGKGLGKGGAK(Ac)RHRKVLR-Peg-Biot [Peptide H4K5acK16ac]”, the “Avg Signal” value in experiment [1] is given as 0.0005008; in experiment [3], 0.0002957.
In the same order, the values of “Ac-SGRGK(Pro)GGK(Pro)GLGK(Pro)GGAKRHRKVLR-Peg-Biot [H4K5proK8proK12pro]” are 0.02856 and 0.005323.
“Ac-SGRGKGGK(Ac)GLGK(Ac)GGAK(Ac)RHRKVLR-Peg-Biot [H4K8acK12acK16ac]”: the “Avg Signal” value is 0.005254 in experiment [1] and 0.004192 in experiment [2].
“Ac-SGRGKGGK(Ac)GLGKGGAKRHRK(Ac)VLR-Peg-Biot [Peptide H4K8acK20ac]”: the “Avg Signal” value is reported as 0.001712 in experiment [1] and 0.003203 in experiment [3].
For the substance “Ac-TGGKAPR-NleQLATKAAR-Peg-Biot [Peptide H3.1K18-Nle]”, the “Avg Signal” value turned out to be 0.005136 in experiment [1] and 0.003627 in experiment [3].
With “Biot-Peg-GKKATQASQEY-OH [H2A.X(132-142)]”, the “Avg Signal” value in experiment [1] was 0.01738; in experiment [2] it was 0.00268.
As for H3.1.1(15-34), the “Avg Signal” value in experiment [3] is 0.01508.
Consider “IHQNLLPKK-pS-AKATKASQ-Peg-Biot [yH2AS121p]”, for which the “Avg Signal” value in experiment [1] turned out to be 0.007624; in experiment [3], 0.006042.
Take “IHQNLLPKKSAKATKASQ-Peg-Biot [yH2A(112-129)]”: the “Avg Signal” value in experiment [1] was 0.0006752; in experiment [2], 0.01029; in experiment [3] it was 0.005669.
Turning to “KSAPSpTGGVKKPHRYRPGT-G-K(Biot)-NH2 [Peptide H3.3T32p]”, the “Avg Signal” value in experiment [1] came out at 0.006003; in experiment [2], 0.0003862; in experiment [3], 0.001353.
For “KSAPpSTGGVK(Me3)KPHRYRPGTV-K(biotin)-NH2 [H3.3S31pK36me3]”, the “Avg Signal” value in experiment [1] came to 0.01017; in experiment [3] it was 0.01189.
In the same order, the values of “PEPAKSAPAPKK(Ac)GSKKAVTKAQKK-Peg-Biot [Peptide H2BK12ac]” are 0.004181 and 0.0009681.
As to “PEPAKSAPAPKKGSKK(Ac)AVTKAQKK-Peg-Biot [Peptide H2BK16ac]”, the “Avg Signal” value in experiment [1] was found to be 0.006632; in experiment [2], 0.001252; in experiment [3], 0.01682.
